Laboratory results reported in PMC11540889, “In Vitro Cytotoxicity of Fluorinated Quaternary Ammonium Salts in Colorectal Cancer Cells and In Silico Pharmacology” (Advances in Pharmacological and Pharmaceutical Sciences, 2024).
Like-named read-outs stand apart in the source and are kept apart here.

Assays:
[1] = Ex vivo MTT cytotoxicity, healthy murine colorectal tissue; format: cell-based, BALB/c mice; settings: BALB/c, mouse, healthy murine colorectal tissue (MCRT) pieces, ex vivo, nontumoral control, MTT, 48 h, mean ± SD
Protocol: (§1) The compounds were solubilized in dimethyl sulfoxide (DMSO, Fischer Chemical, NJ, USA) at 50,000 μg/mL and stored at −20°C until use. From the stock solution, six serial 1:2 double dilutions of each compound were prepared to start with concentrations of 100, 50, 25, 12.5, 6.25, and 3.125 μg/mL, respectively. 5-FU, one of the conventional drugs to treat CRC [34], was used as an antitumor compound control at concentrations ranging between 800 and 0.625 μM.
(§2) SW948 (Dukes' Type C, Grade III, premetastatic colorectal adenocarcinoma—CCL-237), SW48 (Dukes' Type C, Grade IV, noninvasive colorectal adenocarcinoma—CCL231), and SW620 (Dukes' Type C, Grade IV invasive colorectal adenocarcinoma—CCL227) (American Type Culture Collection Manassas, VA, USA) were maintained in standard conditions at 37°C, without a CO2 atmosphere. PBMCs and MCRT were used as nontumoral control cells. PBMCs were obtained by healthy donors, separated using Histopaque-1077 (Sigma-Aldrich) and cultured in RPMI-1640 medium (Sigma-Aldrich) supplemented with 10% SFB and 1% penicillin/streptomycin [46]. In turn, MCRT were obtained from healthy BALB/c mice; for this, mice were euthanized with CO2 after previous sedation, the colorectal tissue removed, cleaned up, and cut into 2 × 2 mm pieces, suspended in supplemented DMEM, and used immediately after collection. […] Moreover, the inclusion of PBMC also served to assess the systemic toxicity of FQAS.
(§3) The cytotoxic activity of synthesized FQASs and QASs was studied by measuring cell viability/mortality, determined with the MTT (3-(4,5-dimethylthiazol-2-yl)-2,5-diphenyl tetrazole bromide) method (VWR Chemicals and Reagents Avantor), upon exposure of each cell line to six serial dilutions of the different compounds independently. Unexposed cells were included as viability controls, and cells exposed to 5-FU were included as cytotoxicity controls. Briefly, cells were adjusted to 200,000 cells/mL in the corresponding supplemented culture medium, and 100 μL (20,000 cells/well) were dispensed into each 96-well cell culture plate (Nunc, Thermo Fisher Scientific). Twelve hours after seeding the monolayer, 100 μL dilution of each compound was added to each well; the plates containing CRC were incubated at 37°C in the absence of CO2, while plates with PBMCs and MCRT were incubated at 37°C and 5% CO2 atmosphere. For MCRT, each piece was placed into each well of a 96-well plate and exposed to each dilution of the FQASs and QASs. After 48 h of incubation, 30 μL/well of MTT (5 mg/mL) was added, and plates were left at 37°C for 3 h, protected from light. After this time, 100 μL/well of DMSO was added to solubilize the formazan crystals formed. Plates were read at 570 nm on a Varioskan plate reader (Thermo Fisher), and nonspecific absorbance was corrected by subtracting the optical densities (OD) of the blank solutions corresponding to the supplemented culture media (RPMI 1640, DMEM, or L-15 media) and 0.5% DMSO. Each concentration of the FQASs, QASs, and controls was evaluated in duplicate in three independent experiments.
(§4) The percentages of viability (equation (1)) and mortality (equation (2)) were calculated with the net OD:(1) % viability=OD treated cell÷nontreated cells×100, (2) % mortality=100−% viability.
(§5) The %mortality data for each compound concentration was recorded, and the median cytotoxic concentration (CC50), corresponding to the concentration at which 50% of cell death occurs, was calculated using GraphPad Prism 8 software (GraphPad, Software, Inc., La Jolla, CA, USA). […] Lastly, the index of selectivity (IS) was calculated by dividing the CC50 value obtained for control cells (MCRT and PBMCs) by the CC50 value obtained for each CRC cell phenotype using the formula: IS = CC50 (MCRT or PBMC) ÷ CC50 (SW948, SW48 or SW620).

[2] = test system: SW620 (Dukes' Type C, Grade IV invasive colorectal adenocarcinoma); assay: MTT cytotoxicity, SW620 cells; settings: for CC50: Homo sapiens; for Index of selectivity MCRT / SW620: IS = CC50 MCRT ÷ CC50 SW620; for Index of selectivity PBMC / SW620: IS = CC50 PBMC ÷ CC50 SW620
Protocol: as §1, §2, §3, §4, §5

[3] = test system: CRC cell lines SW48, SW620, and SW948; assay: MTT cytotoxicity across CRC cell lines (pooled statements, selectivity between lines); format: cell-based; settings: for Index of selectivity SW48 vs. SW620: IS = CC50 SW48 ÷ CC50 SW620; for Index of selectivity SW948 vs. SW48: IS = CC50 SW948 ÷ CC50 SW48; for Index of selectivity SW948 vs. SW620: IS = CC50 SW948 ÷ CC50 SW620
Protocol: as §1, §2, §3, §4
The %mortality data for each compound concentration was recorded, and the median cytotoxic concentration (CC50), corresponding to the concentration at which 50% of cell death occurs, was calculated using GraphPad Prism 8 software (GraphPad, Software, Inc., La Jolla, CA, USA). […]

[4] = MTT cytotoxicity, peripheral blood mononuclear cells; format: cell-based; settings: human, peripheral blood mononuclear cells (PBMC); PBMC, nontumoral control, MTT, 48 h, mean ± SD
Protocol: as §1, §2, §3, §4, §5

[5] = test system: SW48 (Dukes' Type C, Grade IV, noninvasive colorectal adenocarcinoma); assay: MTT cytotoxicity, SW48 cells; settings: for CC50: SW48 cells, MTT, 48 h, mean ± SD; for Index of selectivity MCRT / SW48: IS = CC50 MCRT ÷ CC50 SW48; for Index of selectivity PBMC / SW48: IS = CC50 PBMC ÷ CC50 SW48
Protocol: as §1, §2, §3, §4, §5

[6] = test system: SW948 (Dukes' Type C, Grade III, premetastatic colorectal adenocarcinoma); assay: MTT cytotoxicity, SW948 cells; settings: for CC50: SW948 cells, MTT, 48 h, mean ± SD; for Index of selectivity MCRT / SW948: IS = CC50 MCRT ÷ CC50 SW948; for Index of selectivity PBMC / SW948: IS = CC50 PBMC ÷ CC50 SW948
Protocol: as §1, §2, §3, §4, §5

| SMILES | CC50 at 48 h [1] | CC50 ([2]; 48 h) | Index of selectivity MCRT / SW620 [2] | Index of selectivity PBMC / SW620 [2] | Index of selectivity SW48 vs. SW620 [3] | Index of selectivity SW948 vs. SW48 [3] | Index of selectivity SW948 vs. SW620 [3] | CC50 at 48 h [4] | CC50 ([5]; Homo sapiens, SW48, 48 h) | Index of selectivity MCRT / SW48 [5] | Index of selectivity PBMC / SW48 [5] | CC50 ([6]; Homo sapiens, SW948, 48 h) | Index of selectivity MCRT / SW948 [6] | Index of selectivity PBMC / SW948 [6] | further results |
| --- | --- | --- | --- | --- | --- | --- | --- | --- | --- | --- | --- | --- | --- | --- | --- |
| C[N+](C)(C)CCCC=C(c1cccc(F)c1)c1cccc(F)c1 [Compound 1] | 212 ± 4 µM | 63.7 ± 15.3 µM | 3.3 | 0.5 | 1.7 | 2.0 | 3.3 | 29.8 ± 2.4 µM | 105 ± 12 µM | 2.0 | 0.3 | 211 ± 7.4 µM | 1.0 | 0.1 | – |
| C[N+](C)(CI)CCCC=C(c1ccc(F)cc1)c1ccc(F)cc1 [Compound 2] | 205 ± 14.5 µM | – | 7.3 | 1.3 | 2.7 | 1.0 | 2.8 | 35.6 ± 6.6 µM | 75.7 ± 14.2 µM | 2.7 | 0.47 | 77.9 ± 9.1 µM | 2.6 | 0.5 | CC50 ([2]; SW-620, read-out: LC50 (Figure 2c)): 28.1 µM |
| C[N+](C)(CCl)CCCCC=C(c1ccc(F)cc1)c1ccc(F)cc1 [Compound 3] | 130 ± 20 µM | 64.5 ± 8.1 µM | 2.0 | 0.6 | 1.9 | 0.4 | 0.8 | 39.7 ± 7.7 µM | 125 ± 5.1 µM | 1.0 | 0.32 | 52.9 ± 13.8 µM | 2.5 | 0.8 | – |
| C[N+](C)(CI)CCCCC=C(c1ccc(F)cc1)c1ccc(F)cc1 [Compound 4] | 107 ± 4.5 µM | 52.5 ± 5.6 µM | 2.0 | 0.9 | 1.9 | 0.7 | 1.4 | 45.1 ± 7.3 µM | 100 ± 3 µM | 1.1 | 0.45 | 72.8 ± 12.8 µM | 1.5 | 0.6 | – |
| O=c1[nH]cc(F)c(=O)[nH]1 [Compound 5-FU, 5-fluorouracil, reference compound] | 945 ± 43.7 µM | 30.3 ± 6 µM | 31.2 | 1.3 | 0.9 | 1.1 | 1.0 | 38.7 ± 7 µM | 30.3 µM | 33.9 | 1.4 | 30.3 ± 5.2 µM | 31.2 | 1.3 | cytotoxicity level (high/moderate/low) [2]: High; CC50 ([2]; SW-620): 27.9 µM; cytotoxicity level (high/moderate/low) [5]: High; cytotoxicity level (high/moderate/low) [6]: High |
| C[N+](C)(CCl)CCCC=C(c1cccc(C(F)(F)F)c1)c1cccc(C(F)(F)F)c1 [Compound 5] | 121 ± 5.4 µM | 24.5 ± 2.3 µM | 4.9 | 1.4 | 2.1 | 0.8 | 1.8 | 34.8 ± 6 µM | 43.5 µM | 2.3 | 0.66 | 24.5 µM | 2.8 | 0.8 | CC50 ([2]; SW-620): 52 µM; CC50 [5]: 52 ± 9.2 µM; CC50 [6]: 43.5 ± 4 µM |
| C[N+](C)(CI)CCCC=C(c1cccc(C(F)(F)F)c1)c1cccc(C(F)(F)F)c1 [Compound 6] | 129 ± 11.3 µM | 38.8 ± 2.1 µM | 3.3 | 1.2 | 1.4 | – | – | 44.8 ± 6.4 µM | 55.5 ± 6.4 µM | 2.3 | 0.80 | 45.6 ± 3.6 µM | 2.8 | 1.0 | – |
| C[N+](C)(C)CCCC=C(c1cccc(C(F)(F)F)c1)c1cccc(C(F)(F)F)c1 [Compound 7] | 123 ± 9.2 µM | 31.1 ± 0.2 µM | 4.0 | 1.5 | 2.6 | 0.2 | – | 46.3 ± 7.5 µM | 81.4 ± 9.4 µM | 1.5 | 0.57 | 20 ± 0.8 µM | 6.2 | 2.3 | – |
| C[N+](C)(CCl)CCCC=C(c1ccc(C(F)(F)F)cc1)c1ccc(C(F)(F)F)cc1 [Compound 8] | 102 ± 5 µM | 19.2 ± 3.5 µM | 5.3 | 2.2 | 2.6 | 0.4 | 1.1 | 42.3 ± 9.3 µM | 50.8 ± 4 µM | 2.0 | 0.8 | 20.4 ± 6.2 µM | 5.0 | 2.1 | – |
| C[N+](C)(CI)CCCC=C(c1ccc(C(F)(F)F)cc1)c1ccc(C(F)(F)F)cc1 [Compound 9] | 206 ± 19.4 µM | 32.2 ± 1 µM | 6.4 | 1.0 | 1.2 | 0.5 | 0.6 | 30.6 ± 2.1 µM | 40.2 ± 6 µM | 5.1 | 0.8 | 20 ± 4.7 µM | 10.3 | 1.5 | – |
